Reference: the Kinase Knowledgebase extract (Sharma et al. 2016)

Columns and labels:
EGFR (human) = EGFR (human) (UniProt P00533); settings: a431
EGFR = EGFR (UniProt P00533)
EGFR, sequence (P00533 whole entry, looked up): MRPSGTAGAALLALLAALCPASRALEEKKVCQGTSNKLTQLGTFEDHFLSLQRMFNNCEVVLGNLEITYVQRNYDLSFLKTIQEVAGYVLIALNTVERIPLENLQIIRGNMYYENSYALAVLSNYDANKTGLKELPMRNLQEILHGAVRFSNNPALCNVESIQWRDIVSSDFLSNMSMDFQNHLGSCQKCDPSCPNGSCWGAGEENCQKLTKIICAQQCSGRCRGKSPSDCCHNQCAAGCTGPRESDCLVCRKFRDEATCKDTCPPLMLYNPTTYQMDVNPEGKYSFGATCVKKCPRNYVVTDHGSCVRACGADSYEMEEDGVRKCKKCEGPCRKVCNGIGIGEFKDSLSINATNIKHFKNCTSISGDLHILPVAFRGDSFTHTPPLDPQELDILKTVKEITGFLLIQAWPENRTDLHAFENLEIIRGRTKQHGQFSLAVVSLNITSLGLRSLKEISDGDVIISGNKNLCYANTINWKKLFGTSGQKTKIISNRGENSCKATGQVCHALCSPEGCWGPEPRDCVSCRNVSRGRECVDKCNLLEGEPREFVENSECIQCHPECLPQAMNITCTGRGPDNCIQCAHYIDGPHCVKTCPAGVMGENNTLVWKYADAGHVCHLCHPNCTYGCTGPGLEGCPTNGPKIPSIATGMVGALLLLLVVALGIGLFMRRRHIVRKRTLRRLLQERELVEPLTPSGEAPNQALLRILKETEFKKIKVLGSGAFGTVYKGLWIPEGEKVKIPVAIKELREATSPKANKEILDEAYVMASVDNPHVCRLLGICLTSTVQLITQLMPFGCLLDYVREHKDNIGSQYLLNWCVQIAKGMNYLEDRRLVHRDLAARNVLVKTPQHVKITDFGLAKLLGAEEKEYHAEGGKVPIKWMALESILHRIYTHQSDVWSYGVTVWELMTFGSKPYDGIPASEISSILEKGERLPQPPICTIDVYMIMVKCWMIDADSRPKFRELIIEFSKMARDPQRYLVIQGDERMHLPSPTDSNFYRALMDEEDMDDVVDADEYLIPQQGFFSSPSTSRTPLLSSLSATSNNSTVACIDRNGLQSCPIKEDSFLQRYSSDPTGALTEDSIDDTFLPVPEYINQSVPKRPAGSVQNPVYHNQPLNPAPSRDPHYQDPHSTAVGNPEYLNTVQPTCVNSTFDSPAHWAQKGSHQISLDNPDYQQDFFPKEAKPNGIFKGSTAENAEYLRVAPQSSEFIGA

EGFR (human), sequence (P00533 whole entry, looked up): as above

Row | IC50 (EGFR (human)) [µM] | IC50 (EGFR) [µM] | Compound
1 | 50 |  | COc1cc2nccc(Oc3ccc(C(=O)c4ccccc4)cc3)c2cc1OC
2 | > 100 |  | COc1cc2nccc(Oc3ccc(C(=O)c4ccc(-c5ccccc5)cc4)cc3)c2cc1OC
3 | 89 |  | COc1cc2nccc(Oc3cccc(C(=O)c4ccccc4)c3)c2cc1OC
4 | > 100 | > 100 | COc1cc2nccc(Oc3ccc(C(=O)c4ccc(C(C)(C)C)cc4)cc3)c2cc1OC
5 | > 100 |  | CCCCc1ccc(C(=O)Nc2ccc(Oc3ccnc4cc(OC)c(OC)cc34)cc2)cc1
6 | 16 |  | COc1cc2nccc(Oc3ccc(O)cc3)c2cc1OC
7 | > 100 |  | COc1cc2nccc(Oc3ccc(C(=O)c4ccc(C(F)(F)F)cc4)cc3)c2cc1OC
8 | > 100 |  | COc1ccc(C(=O)Nc2ccc(Oc3ccnc4cc(OC)c(OC)cc34)cc2)cc1OC
9 | > 100 |  | COc1cc2nccc(Oc3ccc(NC(=O)c4ccco4)cc3)c2cc1OC
10 | 95 |  | COc1cc2nccc(Oc3ccc(C(=O)c4cccc(C)c4)cc3)c2cc1OC
11 | 28 |  | COc1cc2nccc(Oc3ccc(C(=O)c4cccc(F)c4)cc3)c2cc1OC
12 | 21 |  | COc1cc2nccc(Oc3ccc(C(=O)c4ccccc4C(F)(F)F)cc3)c2cc1OC
13 | 92 |  | COc1cc2nccc(Oc3ccccc3OC)c2cc1OC
14 | 30 |  | COc1cc2nccc(Oc3ccc(C(=O)Nc4ccc(C(C)(C)C)cc4)cc3)c2cc1OC
15 | > 100 |  | COc1cc2nccc(Oc3cccc(C(C)=O)c3)c2cc1OC
16 | > 100 |  | COc1cc2nccc(Oc3ccc(C(=O)c4ccc(Cl)cc4)cc3)c2cc1OC
17 | 20 |  | COc1cc2nccc(Oc3ccc(Br)cc3)c2cc1OC
18 | 48 |  | COc1cc2nccc(Oc3ccc(NC(=O)c4ccc(Br)cc4)cc3)c2cc1OC
19 | > 100 |  | COc1cc2nccc(Oc3ccc(NC(=O)c4ccc([N+](=O)[O-])cc4)cc3)c2cc1OC
20 | 24 |  | COc1cc2nccc(Oc3cccc(F)c3)c2cc1OC

Row | IC50 (EGFR (human)) [µM] | IC50 (EGFR) [µM] | Compound
21 | > 100 |  | COc1cc2nccc(Oc3ccc(N)cc3)c2cc1OC
22 | > 100 |  | COc1cc2nccc(Oc3ccc(C(=O)c4cccc(C(F)(F)F)c4)cc3)c2cc1OC
23 | > 100 |  | COc1cc2nccc(Oc3ccc(NC(=O)c4cccs4)cc3)c2cc1OC
24 | > 100 |  | COc1cc2nccc(Oc3ccc(NC(=O)C4CCCC4)cc3)c2cc1OC
25 | > 100 |  | COc1cc2nccc(Oc3ccc(C(=O)c4ccc(C#N)cc4)cc3)c2cc1OC
26 | 31 |  | COc1cc2nccc(Oc3ccc(C(=O)c4ccc(Cl)c(Cl)c4)cc3)c2cc1OC
27 | 50 |  | COc1cc2nccc(Oc3ccccc3)c2cc1OC
28 | > 100 |  | COc1cc2nccc(Oc3ccc(C(=O)c4ccc(I)cc4)cc3)c2cc1OC
29 | 49 |  | COc1cc(OC)cc(Oc2ccnc3cc(OC)c(OC)cc23)c1
30 | 18 |  | COc1cccc(Oc2ccnc3cc(OC)c(OC)cc23)c1
31 | 14 |  | COc1cc2nccc(Oc3cccc(C)c3)c2cc1OC
32 | 14 |  | COc1cc2nccc(Oc3ccccc3C(=O)c3ccccc3)c2cc1OC
33 | < 10 |  | COc1cc2nccc(Oc3ccccc3N)c2cc1OC
34 | > 100 |  | COc1cc2nccc(Oc3ccc(C(=O)c4ccc(C)cc4)cc3)c2cc1OC
35 | > 100 |  | COc1cc2nccc(Oc3ccc(C(C)=O)cc3)c2cc1OC
36 | 6 |  | COc1cc2nccc(Oc3ccc(N(C)C(=O)c4ccc(C(C)(C)C)cc4)cc3)c2cc1OC
37 | 0.65 |  | COc1cc2nccc(Oc3cccc(NC(=O)c4ccc(C(C)(C)C)cc4)c3)c2cc1OC
38 | > 100 |  | COc1cc2nccc(Oc3ccc(NC(=O)c4ccc(C(C)=O)cc4)cc3)c2cc1OC
39 | 19 |  | COc1cc2nccc(Oc3cccc(O)c3)c2cc1OC
40 | 44 |  | COc1ccc(Oc2ccnc3cc(OC)c(OC)cc23)cc1

Row | IC50 (EGFR (human)) [µM] | IC50 (EGFR) [µM] | Compound
41 | > 100 |  | COc1cc2nccc(Oc3ccc(C(=O)c4ccco4)cc3)c2cc1OC
42 | > 100 |  | COC(=O)c1cccc(Oc2ccnc3cc(OC)c(OC)cc23)c1
43 | 93 |  | COc1cc2nccc(Oc3ccc(NC(=O)c4ccc(C(F)(F)F)cc4)cc3)c2cc1OC
44 | 35 |  | COc1cc2nccc(Oc3cccc([N+](=O)[O-])c3)c2cc1OC
45 | 43 |  | COc1cc2nccc(Oc3ccc(C(=O)c4ccccc4C)cc3)c2cc1OC
46 | 16 |  | COc1cc2nccc(Oc3ccc(C(=O)c4cccs4)cc3)c2cc1OC
47 | 40 |  | COc1cc2nccc(Oc3cccc(N)c3)c2cc1OC
48 | > 100 |  | COc1cc2nccc(Oc3ccc(NC(=O)C4CCCCC4)cc3)c2cc1OC
49 | > 100 |  | COc1cc2nccc(Oc3ccc(C(=O)c4ccc([N+](=O)[O-])cc4)cc3)c2cc1OC
50 | > 100 |  | COc1cc2nccc(Oc3ccc(NC(=O)c4ccc(-c5ccccc5)cc4)cc3)c2cc1OC
51 | > 100 |  | COc1cc2nccc(Oc3cccc(OC)c3OC)c2cc1OC
52 | > 100 |  | COc1cc2nccc(Oc3ccc(NC(C)=O)cc3)c2cc1OC
53 | > 100 | > 100 | COc1cc2nccc(Oc3ccc(NC(=O)c4ccc(C(C)(C)C)cc4)cc3)c2cc1OC
54 | > 100 |  | COc1cc2nccc(Oc3ccc(C(=O)c4ccc(Br)cc4)cc3)c2cc1OC
55 | > 100 |  | CCCCOc1ccc(C(=O)Nc2ccc(Oc3ccnc4cc(OC)c(OC)cc34)cc2)cc1
56 | > 100 |  | COc1cc2nccc(Oc3ccc(C(=O)C4CCCCC4)cc3)c2cc1OC
57 | 75 |  | COc1cc2nccc(Oc3ccc(C(=O)c4ccc(F)cc4)cc3)c2cc1OC
58 | > 100 |  | CCCCc1ccc(C(=O)c2ccc(Oc3ccnc4cc(OC)c(OC)cc34)cc2)cc1
59 | 81 |  | COc1cc2nccc(Oc3c(OC)cccc3OC)c2cc1OC
60 | > 100 |  | COc1cc2nccc(Oc3ccc(C(=O)c4ccc(OC(F)(F)F)cc4)cc3)c2cc1OC
